# Read-outs that look alike come from different tables or passages of the source.
# Experiments:
# [1] = system: U87 cells; experiment: Cell viability assay (PrestoBlue, 5 d) in U87 glioma cells; assay type: cell-based; conditions: library screen, 5 d treatment, mean of three independent experiments in triplicates, read-out: EC50 U87 ± SEM
# Protocol: (§1) The antiproliferative activity of a total of 100 compounds was tested against U87 and T98 glioma cell lines, using TMZ[3] and the Topoisomerase I inhibitor SN-38[18] as positive controls. Cells were treated with the library members for 5 d at three different concentrations (3, 30 and 300 µM) and cell viability determined using the PrestoBlue reagent. Half-maximal effective concentration (EC50) values were calculated from the corresponding dose-response curves and plotted in Fig. 2a as a heatmap to facilitate data analysis, with black meaning no activity and dark to light green to yellow transitions indicating decreasing EC50 values (=increasing potencies). Table 1 of the Suppl. Data contains the corresponding EC50 values ± SEM.
# (§2) INK128 and SN-38 were used as positive controls. […] Structurally, these derivatives differed in the size of the alkyl group of the N1 position and the presence or absence of an oxygen atom in that moiety (see Suppl. Data).
# (§3) U87 and T98 cells (ATCC) were cultured in DMEM (Gibco), supplemented with 10% (v/v) FBS (Gibco) and 2 mM L-Glutamine (Gibco) in a standard incubator (95% humidity, 5% CO2), and subcultured twice per week through trypsinization. G317 patient-derived glioma cells were established by the Glioma Cellular Genetics Resource (gcgr.org.uk) funded by Cancer Research UK. Ethics approval for use of patient-derived cells and early access confirmation to reagents from the Glioma Cellular Genetics Resource assured that all ethical issues according to UK legislation are fulfilled. G317 were cultured in DMEM/HAMS-F12 (Sigma) supplemented with 1.5 g L^−1 D-(+)-Glucose (Sigma), MEM non-essential aminoacids (Gibco), 0.015% (w/v) Penicillin-Streptomycin (Gibco), 0.012% (w/v) BSA (Gibco), 0.1 mM β-mercaptoethanol (Gibco), B27 (Gibco) and N2 supplements (Gibco). Cells were detached using accutase solution (Sigma) and subcultured once per week. Before adding to the cells, medium was supplemented with 10 ng ml^−1 mouse EGF (Preprotech), 10 ng ml^−1 human FGF (Preprotech), and 1 µg ml^−1 Laminin (Sigma).
# (§4) 1 × 10^3 U87 cells/well, 5 × 10^2 T98 cells/well, 1 × 10^4 G317 cells/well, 1 × 10^4 HBVP cells/well and 1 × 10^4 bEnd3 cells/well were seeded in 96-well plates. After 48 h in culture, cells were treated with the inhibitors for 5 d. For GI50 determination, the viability of a triplicate sample of each experiment before treatment was measured with the PrestoBlue Reagent (Invitrogen), to establish a basepoint 0% of growth. […] ZIP Synergy scores were obtained with Synergy finder.[22] Viability percentage, EC50 and GI50 values were obtained using GraphPad Prism version 8.0.0 for Windows, GraphPad Software, San Diego, California USA, www.graphpad.com.
# [2] = system: T98 cells; experiment: Cell viability assay (PrestoBlue, 5 d) in T98 glioma cells; assay type: cell-based; conditions: library screen, 5 d treatment, mean of three independent experiments in triplicates, read-out: EC50 T98 ± SEM
# Protocol: as §1, §2, §3, §4
EC50 [1] [µM],EC50 [2] [µM],"EC50 ([1]; Homo sapiens, U-87 MG, 120 h) [µM]","EC50 ([2]; Homo sapiens, T98, 120 h) [µM]",Compound
20.3 ± 2.63,26.2,–,–,Nc1ncc(-c2ccc(-c3nn(CC4CCCC4)c4ncnc(N)c34)cc2)o1 [eCF341]
6.74 ± 1.48,5.72 ± 1.95,–,–,Cc1ccc(-c2nn(CCN3CCC(CCN(C)C)CC3)c3ncnc(N)c23)cc1 [eCF113]
> 30,> 30,–,–,CCOC(Cn1nc(-c2ccc(C(N)=O)cc2)c2c(N)ncnc21)OCC [eCF209]
> 30,> 30,–,–,CN(C)C1CCN(CCn2nc(-c3ccc(CC(=O)O)cc3)c3c(N)ncnc32)CC1 [eCF556]
25 ± 3.15,18.8 ± 2.69,–,–,Nc1ncnc2c1c(-c1ccc(C(F)(F)F)cc1)nn2CC1CCCC1 [eSM210]
> 30,> 30,–,–,CNc1ncc2c(-c3ccc(N4CCN(C(=O)C(C)(C)C)CC4)nc3)nn(Cc3cn(Cc4ccccc4)nn3)c2n1 [eSM153]
7.18 ± 1.5,6.87 ± 1.77,–,–,CN(C)C1CCN(CCn2nc(-c3ccc4c(ccn4C(=O)OC(C)(C)C)c3)c3c(N)ncnc32)CC1 [eCF548]
9.73 ± 1.22,11.3 ± 0.882,–,–,CNc1ncc2c(-c3ccc(N4CCNCC4)nc3)nn(Cc3cn(Cc4ccccc4)nn3)c2n1 [eSM119]
> 30,> 30,–,–,Cc1ccc(-c2nn(CCN3CCN(CCO)CC3)c3ncnc(N)c23)cc1 [eCF104]
13 ± 0.291,6.26 ± 1.39,–,–,CNc1ncc2c(-c3ccc(N4CCNCC4)cc3)nn(Cc3cn(Cc4ccccc4)nn3)c2n1 [eSM135]
11.3 ± 2.56,13.1 ± 2.65,–,–,Nc1ncnc2c1c(-c1cnc3[nH]ccc3c1)nn2CC1OCCO1 [eCF307]
> 30,> 30,–,–,CNc1ncc2c(-c3ccc(OC)cc3)nn(CC3OCCO3)c2n1 [eSM110]
29.2 ± 3.88,9.1 ± 1.37,–,–,COc1cc(-c2nn(CCN3CCC(N(C)C)CC3)c3ncnc(N)c23)ccc1NC(=O)Oc1ccccc1 [eCF532]
> 30,17.5 ± 2.14,–,–,CNc1ncc2c(-c3ccc(OC)c(OC)c3)nn(CC3CCCC3)c2n1 [eSM104]
> 30,> 30,–,–,COc1cc(-c2nn(CCN3CCC(N(C)C)CC3)c3ncnc(N)c23)ccc1NC(=O)CC(C)(C)C [eCF526]
> 30,> 30,–,–,CN(C)C1CCN(CCn2nc(-c3ccc(NCc4ccccn4)cc3)c3c(N)ncnc32)CC1 [eCF576]
> 30,> 30,–,–,COc1cc(-c2nn(CCN3CCCC(N(C)C)C3)c3ncnc(N)c23)ccc1NC(=O)OC(C)(C)C (stereo not shown) [eCF603]
> 30,> 30,–,–,Cc1ccc(-c2nn(CCN3CCC(O)CC3)c3ncnc(N)c23)cc1 [eCF106]
> 30,> 30,–,–,Cc1ccc(-c2nn(CCN3CCN(C)CC3)c3ncnc(N)c23)cc1 [eCF103]

# Further lines, the molecule ahead of its results:
Compound,EC50 [1] [µM],EC50 [2] [µM],"EC50 ([1]; Homo sapiens, U-87 MG, 120 h) [µM]","EC50 ([2]; Homo sapiens, T98, 120 h) [µM]"
CN(C)C1CCN(CCn2nc(-c3ccc(CC(=O)OC(C)(C)C)cc3)c3c(N)ncnc32)CC1 [eCF553],> 30,6.58 ± 2.18,–,–
CN(C)C1CCN(CCn2nc(-c3ccc(NC(=O)OC(C)(C)C)c(O)c3)c3c(N)ncnc32)CC1 [eCF562],> 30,> 30,–,–
COc1cc(-c2nn(CCN3CCC(N4CCCCC4)CC3)c3ncnc(N)c23)ccc1NC(=O)OC(C)(C)C [eCF599],> 30,23 ± 13.4,–,–
CN(C)C1CCN(CCn2nc(-c3cnc4[nH]ccc4c3)c3c(N)ncnc32)CC1 [eCF502],15.2 ± 2.36,17.6 ± 3.93,–,–
COC(Cn1nc(-c2cnc3[nH]ccc3c2)c2c(N)ncnc21)OC [eCF308],–,–,6.16 ± 1.22,7.34 ± 1.56
COc1ccc(-c2nn(CCN3CCC(CN(C)C)CC3)c3ncnc(N)c23)cc1OC [eCF224],> 30,> 30,–,–
COc1cc(-c2nn(CCN3CCC(N(C)C)CC3)c3ncnc(N)c23)ccc1NC(=O)NC(C)(C)C [eCF540],> 30,24.8 ± 2.68,–,–
CN(C)CC1CCN(CCn2nc(-c3cccc(O)c3)c3c(N)ncnc32)CC1 [eCF225],> 30,> 30,–,–
CNc1ncc2c(-c3ccc(N4CCN(C(=O)NC(C)(C)C)CC4)nc3)nn(CC3CCCC3)c2n1 [eSM149],> 30,> 30,–,–
COc1cc(-c2nn(CCN3CCC(N(C)C)CC3)c3ncnc(N)c23)ccc1NC(=O)N(C)C(C)(C)C [eCF608],21.1 ± 3.02,14.4 ± 7.53,–,–
CNc1ncc2c(-c3ccc(OC)cc3)nn(CC3CCCC3)c2n1 [eSM105],20.9 ± 1.73,6.36 ± 0.563,–,–
Cc1ccc(-c2nn(CCN3CCCCC3)c3ncnc(N)c23)cc1 [eCF111],> 30,> 30,–,–
CCOC(Cn1nc(-c2cccc(NC(=O)OC(C)(C)C)c2)c2c(N)ncnc21)OCC [eCF207],> 30,> 30,–,–
CNc1ncc2c(-c3ccc(N4CCNCC4)nc3)nn(Cc3cn(C4CCCC4O)nn3)c2n1 (stereo not shown) [eSM121],16.5 ± 1.88,26.3 ± 1.81,–,–
CNc1ncc2c(-c3ccc(N4CCNCC4)nc3)nn(Cc3cn(-c4ccc(Cl)cc4)nn3)c2n1 [eSM143],3.06 ± 0.833,3.02 ± 0.568,–,–
COc1ccc(-c2nn(CCN3CCC(N(C)C)CC3)c3ncnc(N)c23)cc1NC(=O)OC(C)(C)C [eCF558],> 30,> 30,–,–
CN(C)C1CCN(CCn2nc(-c3ccc(CC#N)cc3)c3c(N)ncnc32)CC1 [eCF600],> 30,> 30,–,–
CNc1ncc2c(-c3ccc(N4CCNCC4)nc3)nn(CC3OCCO3)c2n1 [eSM112],21.3 ± 2.35,9.26 ± 0.465,–,–
COc1cc(-c2nn(CCN3CCC(N(C)C)CC3)c3ncnc(N)c23)ccc1NC(=O)OC(C)(C)C [eCF506],–,–,13.6 ± 0.809,9.97 ± 4.88

Compound,EC50 [1] [µM],EC50 [2] [µM],"EC50 ([1]; Homo sapiens, U-87 MG, 120 h) [µM]","EC50 ([2]; Homo sapiens, T98, 120 h) [µM]"
Cc1ccc(-c2nn(CCN3CCC(CO)CC3)c3ncnc(N)c23)cc1 [eCF107],> 30,> 30,–,–
CNc1ncc2c(-c3cccc(C(N)=O)c3)nn(CC3CCCC3)c2n1 [eSM108],23.8 ± 2.78,> 30,–,–
Nc1ncnc2c1c(-c1ccc(F)cc1)nn2CC1CCCC1 [eSM211],> 30,24.6 ± 3.25,–,–
CN(C)CC1CCN(CCn2nc(C#Cc3ccccc3)c3c(N)ncnc32)CC1 [eCF230],18.2 ± 1.2,13.7 ± 1.84,–,–
CN(C)CC1CCN(CCn2nc(-c3ccc4ncccc4c3)c3c(N)ncnc32)CC1 [eCF223],> 30,> 30,–,–
CNc1ncc2c(-c3ccc(N(C)C)nc3)nn(Cc3cn(Cc4ccccc4)nn3)c2n1 [eSM146],> 30,> 30,–,–
COc1cc(-c2nn(CCN3CCC(N(C)C)CC3)c3ncnc(N)c23)ccc1NC(=O)OC(C)(C)C [eCF581],> 30,> 30,–,–
CNc1ncc2c(-c3ccc(N4CCNCC4)nc3)nn(Cc3cn(-c4ccccc4)nn3)c2n1 [eSM139],6.09 ± 1.39,8.6 ± 3.39,–,–
CCOC(Cn1nc(-c2cccc(O)c2)c2c(N)ncnc21)OCC [eCF205],> 30,> 30,–,–
COc1cc(-c2nn(CCN3CCC(N(C)C)CC3)c3ncnc(N)c23)ccc1NCc1ccccc1 [eCF575],> 30,> 30,–,–
CNc1ncc2c(-c3ccc(N4CCN(C(=O)C(C)(C)C)CC4)nc3)nn(CC3CCCC3)c2n1 [eSM150],22.7 ± 9.53,10.1 ± 3,–,–
COc1cc(-c2nn(CCN3CCC(N(C)C)CC3)c3ncnc(N)c23)ccc1NC(=O)OCc1ccccc1 [eCF533],8.22 ± 0.671,3.79 ± 0.519,–,–
COc1cc(-c2nn(CCN3CCC(N(C)C)CC3)c3ncnc(N)c23)ccc1NC(=O)Cc1ccccc1 [eCF530],> 30,22.8 ± 3.21,–,–
COc1cc(-c2nn(CCN3CCC(N(C)C)CC3)c3ncnc(N)c23)ccc1NC(=O)Oc1ccccc1 [eCF535],> 30,16.7 ± 2.8,–,–
CCOC(Cn1nc(-c2cccc(C(N)=O)c2)c2c(N)ncnc21)OCC [eCF208],> 30,> 30,–,–
Cc1ccc(-c2nn(CCN3CCC(CN(C)C)CC3)c3ncnc(N)c23)cc1 [eCF112],6.63 ± 1.44,6.28 ± 1.91,–,–
Nc1ncnc2c1c(-c1ccc(-c3ccccc3)cc1)nn2CC1CCCC1 [eSM212],> 30,22.8 ± 3.13,–,–
CN(C)CC1CCN(CCn2nc(-c3ccoc3)c3c(N)ncnc32)CC1 [eCF226],> 30,> 30,–,–

# From PMC6961122 (Bioorganic & Medicinal Chemistry, 2020)
